Data reported in paper PMC12928749 (ACS catalysis, 2025).

Columns and labels:
[1] = biological target: T1, TyrH (heme-dependent tyrosine hydroxylase) (Streptomyces sclerotialus, UniProt Z9QGI7APK5); experiment: steady-state kinetics; format: biochemical; conditions: co-substrate H2O2
T1 sequence (Z9QGI7APK5 1-314): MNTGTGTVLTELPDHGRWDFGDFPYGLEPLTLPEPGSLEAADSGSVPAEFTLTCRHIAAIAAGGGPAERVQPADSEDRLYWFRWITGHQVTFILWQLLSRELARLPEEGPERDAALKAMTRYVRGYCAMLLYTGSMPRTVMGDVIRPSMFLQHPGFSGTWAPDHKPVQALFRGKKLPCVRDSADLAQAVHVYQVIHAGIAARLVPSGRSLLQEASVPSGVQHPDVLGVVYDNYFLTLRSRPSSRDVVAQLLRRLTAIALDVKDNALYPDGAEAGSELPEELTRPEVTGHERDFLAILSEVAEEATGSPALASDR

[2] = biological target: T1, TyrH (heme-dependent tyrosine hydroxylase); experiment: UV-vis titration; format: binding; conditions: 100 mM potassium phosphate, 50 mM NaCl, pH 7.4; ferric enzyme

| Structure (SMILES) | KM [1] | Kd [2] [µM] |
| --- | --- | --- |
| N[C@@H](Cc1ccc(O)cc1)C(=O)O [L-Tyr, L-tyrosine] | The KM values for both tyrosine and HPPA were comparable (Figure S8) |  |
| O=Nc1ccccc1 [NB, nitrosobenzene] |  | 296 ± 8 |
| O=C(O)CCc1ccc(O)cc1 [HPPA, 3-(4-hydroxyphenyl)propionic acid] | The KM values for both tyrosine and HPPA were comparable (Figure S8) |  |
